From patent US8541601B2, “Piperazine dithioctate and pharmaceutical composition comprising the same” (Celltrion Chemical Research Institute, priority 2009, dated 2013)

Assays:
[1] = type: physicochemical; settings: for remaining rate of the active ingredient, Initial: 0 h; for remaining rate of the active ingredient, 3 days: 72 h; for remaining rate of the active ingredient, 7 days: 168 h; for remaining rate of the active ingredient, 14 days: 336 h; for remaining rate of the active ingredient, 28 days: 672 h
[2] = tested on: rats; settings: rat, in vivo; cited from earlier work

**Q.** What does the source list for `NC(CO)(CO)CO.O=C(O)CCCCC1CCSS1` (stereo not shown) [Tromethamine thioctate, Tromethamine Thioctate]?
**A.** remaining rate of the active ingredient, Initial [1]: 100.0; remaining rate of the active ingredient, 3 days [1]: 100%; remaining rate of the active ingredient, 7 days [1]: 100%; remaining rate of the active ingredient, 14 days [1]: 100%; remaining rate of the active ingredient, 28 days [1]: 100%

**Q.** What does the source list for `O=C(O)CCCCC1CCSS1` (stereo not shown) [Thioctic acid]?
**A.** remaining rate of the active ingredient, Initial [1]: 100.0; remaining rate of the active ingredient, 3 days [1]: 99.8%; remaining rate of the active ingredient, 7 days [1]: 99.6%; remaining rate of the active ingredient, 14 days [1]: 98.9%; remaining rate of the active ingredient, 28 days [1]: 97.8%

**Q.** With `C1CNCCN1` [piperazine] as the compound, how does the “LD50 (the lethal dose causing death in 50% of rats on oral administration)” value [2] read?
**A.** Its value is 1900 mg/kg.

**Q.** Which results are given for `O=C(O)CCCCC1CCSS1` (racemic) [Piperazine dithioctate, Piperazine Dithioctate]?
**A.** remaining rate of the active ingredient, Initial [1]: 100.0; remaining rate of the active ingredient, 3 days [1]: 100%; remaining rate of the active ingredient, 7 days [1]: 100%; remaining rate of the active ingredient, 14 days [1]: 100%; remaining rate of the active ingredient, 28 days [1]: 100%
